According to PubChem BioAssay (NCI):
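At the GI50, growth is halved. At the TGI there is no net growth.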

Assays:
Test in all cases: DTP human tumour cell line panel, 384-well format
OVCAR-5 ovarian = system: OVCAR-5 ovarian
CCRF-CEM leukemia = system: CCRF-CEM leukemia
786-0 renal = system: 786-0 renal
HCT-15 colon = system: HCT-15 colon
HCT-116 colon = system: HCT-116 colon
MDA-MB-468 breast = system: MDA-MB-468 breast
A498 renal = system: A498 renal
DU-145 prostate = system: DU-145 prostate
MALME-3M melanoma = system: MALME-3M melanoma
TK-10 renal = system: TK-10 renal
SNB-19 CNS = system: SNB-19 CNS
NCI-H522 lung = system: NCI-H522 lung
HOP-92 NSCLC = system: HOP-92 NSCLC
SK-MEL-28 melanoma = system: SK-MEL-28 melanoma
T-47D breast = system: T-47D breast
SF-539 CNS = system: SF-539 CNS
OVCAR-4 ovarian = system: OVCAR-4 ovarian
LOX IMVI melanoma = system: LOX IMVI melanoma
SK-OV-3 ovarian = system: SK-OV-3 ovarian
HCC-2998 colon = system: HCC-2998 colon
SK-MEL-5 melanoma = system: SK-MEL-5 melanoma
MDA-MB-435 melanoma = system: MDA-MB-435 melanoma
SN12C renal = system: SN12C renal
NCI-H460 NSCLC = system: NCI-H460 NSCLC
OVCAR-3 ovarian = system: OVCAR-3 ovarian
U251 glioblastoma = system: U251 glioblastoma
UACC-257 melanoma = system: UACC-257 melanoma
NCI-H322M lung = system: NCI-H322M lung
MOLT-4 leukemia = system: MOLT-4 leukemia
K-562 leukemia = system: K-562 leukemia
A549 NSCLC = system: A549 NSCLC
SF-295 CNS = system: SF-295 CNS

## CC#CC(=O)N[C@H]1CCCN(c2c(F)cc(C(N)=O)c3[nH]c(C)c(C)c23)C1
OVCAR-5 ovarian
  GI50: 16.9 µM
  TGI: 38.4 µM
CCRF-CEM leukemia
  GI50: 16.9 µM
  TGI: 30.8 µM
786-0 renal
  GI50: 15.9 µM
  TGI: 33.2 µM
HCT-15 colon
  GI50: 10.8 µM
  TGI: 22.9 µM
HCT-116 colon
  GI50: 13.8 µM
  TGI: 27.3 µM
MDA-MB-468 breast
  GI50: 2.88 µM
  TGI: 11.1 µM
A498 renal
  GI50: 14.7 µM
  TGI: 28.4 µM
DU-145 prostate
  GI50: 18.1 µM
  TGI: 37.2 µM
MALME-3M melanoma
  GI50: 18 µM
  TGI: 32 µM
TK-10 renal
  GI50: 21 µM
  TGI: 58.6 µM
SNB-19 CNS
  GI50: 17.3 µM
  TGI: 32.4 µM
NCI-H522 lung
  GI50: 4.54 µM
  TGI: 17.5 µM
HOP-92 NSCLC
  GI50: 15 µM
  TGI: 33.7 µM
SK-MEL-28 melanoma
  GI50: 18.5 µM
  TGI: 33.1 µM
T-47D breast
  GI50: 5.36 µM
  TGI: 18.6 µM
SF-539 CNS
  GI50: 15.3 µM
  TGI: 28.8 µM
OVCAR-4 ovarian
  GI50: 13.4 µM
  TGI: 26.6 µM
LOX IMVI melanoma
  GI50: 15.4 µM
  TGI: 28.9 µM
SK-OV-3 ovarian
  GI50: 14.4 µM
  TGI: 34.3 µM
HCC-2998 colon
  GI50: 11.1 µM
  TGI: 23.2 µM
SK-MEL-5 melanoma
  GI50: 13.8 µM
  TGI: 26.8 µM
MDA-MB-435 melanoma
  GI50: 17.2 µM
  TGI: 34.1 µM
SN12C renal
  GI50: 14.9 µM
  TGI: 28.9 µM
NCI-H460 NSCLC
  GI50: 15.8 µM
  TGI: 29.6 µM
OVCAR-3 ovarian
  GI50: 14.5 µM
  TGI: 28 µM
U251 glioblastoma
  GI50: 17.3 µM
  TGI: 31.4 µM
UACC-257 melanoma
  GI50: 11.5 µM
  TGI: 23.7 µM
NCI-H322M lung
  GI50: 16.2 µM
  TGI: 30.9 µM
MOLT-4 leukemia
  GI50: 14 µM
  TGI: 27.1 µM
K-562 leukemia
  GI50: 15 µM
  TGI: 28.9 µM
A549 NSCLC
  GI50: 18.1 µM
  TGI: 37.9 µM
SF-295 CNS
  GI50: 13.9 µM
  TGI: 26.9 µM
